Experimental data from patent publication US12485169B2, “Compounds” (GREY WOLF THERAPEUTICS LIMITED, priority 2018, dated 2025).

What follows are molecules tested against T1, Purified ERAP1 (37-941)-10His (ERAP1) (Homo sapiens, UniProt Q9NZ08) (assay: ERAP1 mediated hydrolysis of an amide substrate (10-mer inhibition assay), biochemical system). Conditions: 10-mer substrate, 23° C., 1 h, excitation 279 nm / emission 355 nm; read-out: IC50 vs Decapeptide WRVYEKC(Dnp)ALK-acid (where Dnp is Dinitrophenyl maleimide) (10-mer).
T1 construct: Purified ERAP1 (37-941)-10His (ERAP1)
T1 sequence (Q9NZ08 37-941): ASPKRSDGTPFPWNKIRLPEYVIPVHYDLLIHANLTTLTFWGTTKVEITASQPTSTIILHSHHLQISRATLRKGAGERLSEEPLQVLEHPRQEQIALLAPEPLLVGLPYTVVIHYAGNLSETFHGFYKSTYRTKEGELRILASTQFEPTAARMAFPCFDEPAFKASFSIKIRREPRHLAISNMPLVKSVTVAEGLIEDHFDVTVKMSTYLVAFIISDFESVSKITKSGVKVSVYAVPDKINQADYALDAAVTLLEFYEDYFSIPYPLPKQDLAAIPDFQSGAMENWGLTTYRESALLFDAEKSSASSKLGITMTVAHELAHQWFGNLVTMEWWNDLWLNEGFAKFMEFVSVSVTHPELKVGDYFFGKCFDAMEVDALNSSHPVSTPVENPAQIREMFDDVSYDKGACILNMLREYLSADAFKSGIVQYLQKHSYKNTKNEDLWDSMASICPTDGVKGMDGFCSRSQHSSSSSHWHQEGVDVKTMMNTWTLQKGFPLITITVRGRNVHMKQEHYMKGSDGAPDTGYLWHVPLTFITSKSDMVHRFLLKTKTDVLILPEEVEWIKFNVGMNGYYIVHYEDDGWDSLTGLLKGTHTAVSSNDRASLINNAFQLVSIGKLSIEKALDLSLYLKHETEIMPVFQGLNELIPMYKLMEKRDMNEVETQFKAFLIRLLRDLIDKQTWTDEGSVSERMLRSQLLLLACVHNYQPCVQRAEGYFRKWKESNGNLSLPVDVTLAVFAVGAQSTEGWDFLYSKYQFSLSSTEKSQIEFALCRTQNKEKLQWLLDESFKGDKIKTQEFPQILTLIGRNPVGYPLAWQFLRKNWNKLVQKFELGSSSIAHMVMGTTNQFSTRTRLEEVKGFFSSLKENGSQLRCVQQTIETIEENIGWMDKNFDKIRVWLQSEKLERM

| Compound | IC50 [nM] |
| --- | --- |
| CCc1ccc(C(=O)O)cc1S(=O)(=O)Nc1cc(C(F)(F)F)ccc1N1CCCC[C@H]1C [Example 236, I-4-ethyl-3-(N-(2-(2-methylpiperidin-1-yl)-5-(trifluoromethyl)phenyl)sulfamoyl)benzoic acid] | < 500 |
| COc1ccc(C(=O)O)cc1S(=O)(=O)Nc1cc(C(F)(F)F)ccc1N1CCC(C#N)CC1 [Example 237, 3-(N-(2-(4-cyanopiperidin-1-yl)-5-(trifluoromethyl)phenyl)sulfamoyl)-4-methoxybenzoic acid] | < 500 |
| CCc1ccc(C(=O)O)cc1S(=O)(=O)Nc1cc(C(F)(F)F)ccc1N1CCC(C#N)CC1 [Example 238, 3-(N-(2-(4-cyanopiperidin-1-yl)-5-(trifluoromethyl)phenyl)sulfamoyl)-4-ethylbenzoic acid] | < 500 |
| CCc1ccc(C(=O)O)cc1S(=O)(=O)Nc1cc(C(F)(F)F)ccc1N1CCCC[C@@H]1C [Example 240, (S)-4-ethyl-3-(N-(2-(2-methylpiperidin-1-yl)-5-(trifluoromethyl)phenyl)sulfamoyl)benzoic acid] | < 500 |
| CCc1ccc(C(=O)O)cc1S(=O)(=O)Nc1cc(-n2cnnn2)ccc1N1CCCCC1 [Example 242, 4-ethyl-3-(N-(2-(piperidin-1-yl)-5-(tetrazol-1-yl)phenyl)sulfamoyl)benzoic acid] | < 500 |
| COc1ccc(C(=O)O)cc1S(=O)(=O)Nc1cc(C(F)(F)F)ccc1N1CCC[C@@H](O)C1 [Example 243, I-3-(N-(2-(3-hydroxypiperidin-1-yl)-5-(trifluoromethyl)phenyl)sulfamoyl)-4-methoxybenzoic acid] | < 500 |
| COc1ccc(C(=O)O)cc1S(=O)(=O)Nc1cc(C(F)(F)F)ccc1N1CCC[C@H](O)C1 [Example 244, (S)-3-(N-(2-(3-hydroxypiperidin-1-yl)-5-(trifluoromethyl)phenyl)sulfamoyl)-4-methoxybenzoic acid] | < 500 |
| COc1ccc(C(=O)O)cc1S(=O)(=O)Nc1cc(S(C)(=O)=O)ccc1N1CCC[C@@H](O)C1 [Example 245, I-3-(N-(2-(3-hydroxypiperidin-1-yl)-5-(methylsulfonyl)phenyl)sulfamoyl)-4-methoxybenzoic acid] | < 500 |
| COc1ccc(C(=O)O)cc1S(=O)(=O)Nc1cc(S(C)(=O)=O)ccc1N1CCC[C@H](O)C1 [Example 246, (S)-3-(N-(2-(3-hydroxypiperidin-1-yl)-5-(methylsulfonyl)phenyl)sulfamoyl)-4-methoxybenzoic acid] | < 500 |
| CCc1ccc(C(=O)O)cc1S(=O)(=O)Nc1cc(C(F)(F)F)ccc1N1CCC[C@@H](O)C1 [Example 249, I-4-ethyl-3-(N-(2-(3-hydroxypiperidin-1-yl)-5-(trifluoromethyl)phenyl)sulfamoyl)benzoic acid] | < 500 |
| CCc1ccc(C(=O)O)cc1S(=O)(=O)Nc1cc(S(C)(=O)=O)ccc1N1CCC[C@@H](O)C1 [Example 251, I-4-ethyl-3-(N-(2-(3-hydroxypiperidin-1-yl)-5-(methylsulfonyl)phenyl)sulfamoyl)benzoic acid] | < 500 |
| CCc1ccc(C(=O)O)cc1S(=O)(=O)Nc1cc(-n2cnnn2)ccc1N1CCC[C@@H](O)C1 [Example 252, I-4-ethyl-3-(N-(2-(3-hydroxypiperidin-1-yl)-5-(tetrazol-1-yl)phenyl)sulfamoyl)benzoic acid] | < 500 |
| CCc1ccc(C(=O)O)cc1S(=O)(=O)Nc1cc(-n2cnnn2)ccc1N1CCC[C@H](O)C1 [Example 254, (S)-4-ethyl-3-(N-(2-(3-hydroxypiperidin-1-yl)-5-(tetrazol-1-yl)phenyl)sulfamoyl)benzoic acid] | < 500 |
| CCc1ccc(C(=O)O)cc1S(=O)(=O)Nc1cc(S(C)(=O)=O)ccc1N1CC(C)(O)C1 [Example 255, 4-ethyl-3-(N-(2-(3-hydroxy-3-methylazetidin-1-yl)-5-(methylsulfonyl)phenyl)sulfamoyl)benzoic acid] | < 5000 |
| CCc1ccc(C(=O)O)cc1S(=O)(=O)Nc1cc(-n2cnnn2)ccc1N1CC(C)(O)C1 [Example 257, 4-ethyl-3-(N-(2-(3-hydroxy-3-methylazetidin-1-yl)-5-(tetrazol-1-yl)phenyl)sulfamoyl)benzoic acid] | < 500 |
| CCc1ccc(C(=O)O)cc1S(=O)(=O)Nc1cc(C#N)ccc1N1CCC[C@@H](O)C1 [Example 260, I-3-(N-(5-cyano-2-(3-hydroxypiperidin-1-yl)phenyl)sulfamoyl)-4-ethylbenzoic acid] | < 500 |
| CCc1ccc(C(=O)O)cc1S(=O)(=O)Nc1cc(-c2nn[nH]n2)ccc1N1CCCCC1 [Example 261, 4-ethyl-3-(N-(2-(piperidin-1-yl)-5-(tetrazol-5-yl)phenyl)sulfamoyl)benzoic acid] | < 500 |
| CCc1ccc(C(=O)O)cc1S(=O)(=O)Nc1cc(S(C)(=O)=O)ccc1N1CCC[C@@H](F)C1 [Example 262, I-4-ethyl-3-(N-(2-(3-fluoropiperidin-1-yl)-5-(methylsulfonyl)phenyl)sulfamoyl)benzoic acid] | < 500 |
| CCc1ccc(C(=O)O)cc1S(=O)(=O)Nc1cc(C#N)ccc1N1CCC[C@H](O)C1 [Example 263, (S)-3-(N-(5-cyano-2-(3-hydroxypiperidin-1-yl)phenyl)sulfamoyl)-4-ethylbenzoic acid] | < 500 |
| COc1ccc(C(=O)O)cc1S(=O)(=O)Nc1cc(C#N)ccc1N1CCC[C@H](O)C1 [Example 264, (S)-3-(N-(5-cyano-2-(3-hydroxypiperidin-1-yl)phenyl)sulfamoyl)-4-methoxybenzoic acid] | < 500 |
| O=C(O)c1ccc(C2CC2)c(S(=O)(=O)Nc2cc(C(F)(F)F)ccc2N2CCCCC2)c1 [Example 267, 4-cyclopropyl-3-(N-(2-(piperidin-1-yl)-5-(trifluoromethyl)phenyl)sulfamoyl)benzoic acid] | < 500 |
| COc1ccc(C(=O)O)cc1S(=O)(=O)Nc1cc(S(C)(=O)=O)ccc1N1CCC[C@@H](F)C1 [Example 269, I-3-(N-(2-(3-fluoropiperidin-1-yl)-5-(methylsulfonyl)phenyl)sulfamoyl)-4-methoxybenzoic acid] | < 500 |
| O=C(O)c1ccc(-n2cccn2)c(S(=O)(=O)Nc2cc(C(F)(F)F)ccc2N2CCCCC2)c1 [Example 271, 3-(N-(2-(piperidin-1-yl)-5-(trifluoromethyl)phenyl)sulfamoyl)-4-(pyrazol-1-yl)benzoic acid] | < 5000 |

The next lines start with the values.

| IC50 [nM] | Compound |
| --- | --- |
| < 500 | COc1ccc(C(=O)O)cc1S(=O)(=O)Nc1cc(C(F)(F)F)ccc1N1CCCC[C@@H]1C [Example 239, (S)-4-methoxy-3-(N-(2-(2-methylpiperidin-1-yl)-5-(trifluoromethyl)phenyl)sulfamoyl)benzoic acid] |
| < 500 | CCc1ccc(C(=O)O)cc1S(=O)(=O)Nc1cc(S(C)(=O)=O)ccc1N1CCCCC1 [Example 241, 4-ethyl-3-(N-(5-(methylsulfonyl)-2-(piperidin-1-yl)phenyl)sulfamoyl)benzoic acid] |
| < 500 | CCc1ccc(C(=O)O)cc1S(=O)(=O)Nc1cc(S(C)(=O)=O)ccc1N1CCC[C@H](O)C1 [Example 247, (S)-4-ethyl-3-(N-(2-(3-hydroxypiperidin-1-yl)-5-(methylsulfonyl)phenyl)sulfamoyl)benzoic acid] |
| < 500 | COc1ccc(C(=O)O)cc1S(=O)(=O)Nc1cc(-n2cnnn2)ccc1N1CCC[C@@H](O)C1 [Example 248, I-3-(N-(2-(3-hydroxypiperidin-1-yl)-5-(tetrazol-1-yl)phenyl)sulfamoyl)-4-methoxybenzoic acid] |
| < 500 | CCc1ccc(C(=O)O)cc1S(=O)(=O)Nc1cc(C(F)(F)F)ccc1N1CCC[C@H](O)C1 [Example 250, (S)-4-ethyl-3-(N-(2-(3-hydroxypiperidin-1-yl)-5-(trifluoromethyl)phenyl)sulfamoyl)benzoic acid] |
| < 500 | COc1ccc(C(=O)O)cc1S(=O)(=O)Nc1cc(-n2cnnn2)ccc1N1CCC[C@H](O)C1 [Example 253, (S)-3-(N-(2-(3-hydroxypiperidin-1-yl)-5-(tetrazol-1-yl)phenyl)sulfamoyl)-4-methoxybenzoic acid] |
| < 500 | COc1ccc(C(=O)O)cc1S(=O)(=O)Nc1cc(C#N)ccc1N1CCC[C@@H](O)C1 [Example 258, I-3-(N-(5-cyano-2-(3-hydroxypiperidin-1-yl)phenyl)sulfamoyl)-4-methoxybenzoic acid] |
| < 500 | COc1ccc(C(=O)O)cc1S(=O)(=O)Nc1cc(-c2nn[nH]n2)ccc1N1CCCCC1 [Example 259, 4-methoxy-3-(N-(2-(piperidin-1-yl)-5-(tetrazol-5-yl)phenyl)sulfamoyl)benzoic acid] |
| < 500 | COc1ccc(C(=O)O)cc1S(=O)(=O)Nc1cc(-n2cnnn2)ccc1N1CCC[C@@H](F)C1 [Example 265, I-3-(N-(2-(3-fluoropiperidin-1-yl)-5-(tetrazol-1-yl)phenyl)sulfamoyl)-4-methoxybenzoic acid] |
| < 500 | CCc1ccc(C(=O)O)cc1S(=O)(=O)Nc1cc(-n2cnnn2)ccc1N1CCC[C@@H](F)C1 [Example 266, I-4-ethyl-3-(N-(2-(3-fluoropiperidin-1-yl)-5-(tetrazol-1-yl)phenyl)sulfamoyl)benzoic acid] |
| < 500 | CCCCc1ccc(C(=O)O)cc1S(=O)(=O)Nc1cc(C(F)(F)F)ccc1N1CCCCC1 [Example 268, 4-butyl-3-(N-(2-(piperidin-1-yl)-5-(trifluoromethyl)phenyl)sulfamoyl)benzoic acid] |
| < 5000 | CCc1ccc(C(=O)O)cc1S(=O)(=O)Nc1cc(C(F)(F)F)ccc1N1CC(C)(O)C1 [Example 270, 4-ethyl-3-(N-(2-(3-hydroxy-3-methylazetidin-1-yl)-5-(trifluoromethyl)phenyl)sulfamoyl)benzoic acid] |
| < 500 | O=C(O)c1ccc(C2CCO2)c(S(=O)(=O)Nc2cc(C(F)(F)F)ccc2N2CCCCC2)c1 (stereo not drawn) [Example 272, 4-(oxetan-2-yl)-3-(N-(2-(piperidin-1-yl)-5-(trifluoromethyl)phenyl)sulfamoyl)benzoic acid] |
